For one experiment, the target named is T1, Bcl-XL (Homo sapiens, UniProt Q07817).
T1 construct: a C-terminal 6×HIS tagged Bcl-XL (aa 1-209); 6xHis (C)
Nature of the experiment: Bcl-XL FP assay (competitive fluorescence polarization binding assay, FITC-Bim BH-3 peptide tracer). The following applies: C-terminal 6×HIS tagged Bcl-XL (aa 1-209), 0.8 nM; 2 nM FITC-Bim peptide tracer. The source says: (§1) Bcl-xL and Bcl-2 FP binding affinity of compound(s) of Formulae (I), (I-a), (I-b), (I-c), (I-d) and/or (I-e) may be determined using a variety of known methods. One such assay is a sensitive and quantitative in vitro binding assay using fluorescence polarization (“FP”) described by Wang, J.-L.; Zhang, Z-J.; Choksi, S.; Sjam. S.; Lu, Z.; Croce, C. M.; Alnemri, E. S.; Komgold, R.; Huang, Z. Cell permeable Bcl-2 binding peptides: a chemical approach to apoptosis induction in tumor cells. Cancer Res. 2000, 60, 1498-1502).
(§2) Additionally, the binding affinity of compound(s) of Formulae (I), (I-a), (I-b), (I-c), (I-d) and/or (I-e) to Bcl-2 protein in vitro was determined by a competitive binding assay based on fluorescence polarization. For example, fluorescence polarization (“FP”) assays may be developed using a c-terminal 6×HIS tagged Bcl-2 (aa 1-204) and a C-terminal 6×HIS tagged Bcl-XL (aa 1-209). […] Dilutions of either Bcl-2 (1.3 nM) or Bcl-XL (0.8 nM) may be added to serial dilutions of antagonist and incubated for one hour prior to the addition of 2 nM of fluorescent peptide tracer (Anaspec, Fremont, Calif.) in the assay buffer. Final assay buffer conditions may be 20 mM HEPES, pH 7.5, 1 mM DTT, 0.005% Tween-20 and 50 mM NaCl. Samples may be read after 20-minute incubation. Fluorescence polarization values may be plotted as a function of the antagonist concentration.

The target in a further experiment is T2, Bcl-2 (Homo sapiens, UniProt P10415).
T2 construct: a c-terminal 6×HIS tagged Bcl-2 (aa 1-204); 6xHis (C)
T2 sequence (P10415 1-204): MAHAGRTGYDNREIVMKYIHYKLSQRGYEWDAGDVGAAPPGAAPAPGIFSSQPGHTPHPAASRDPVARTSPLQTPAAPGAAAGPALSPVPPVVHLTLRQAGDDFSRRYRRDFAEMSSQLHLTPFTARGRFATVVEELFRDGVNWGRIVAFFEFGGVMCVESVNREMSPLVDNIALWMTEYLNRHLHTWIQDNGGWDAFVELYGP
In words: Bcl-2 FP assay (competitive fluorescence polarization binding assay, FITC-Bim BH-3 peptide tracer). The conditions noted are these: c-terminal 6×HIS tagged Bcl-2 (aa 1-204), 1.3 nM; 2 nM FITC-Bim peptide tracer.
From the text: as §1, §2

Where a name gives a salt, the structure may show the parent alone. Some results are limits rather than exact numbers.

T1 sequence (Q07817 1-209): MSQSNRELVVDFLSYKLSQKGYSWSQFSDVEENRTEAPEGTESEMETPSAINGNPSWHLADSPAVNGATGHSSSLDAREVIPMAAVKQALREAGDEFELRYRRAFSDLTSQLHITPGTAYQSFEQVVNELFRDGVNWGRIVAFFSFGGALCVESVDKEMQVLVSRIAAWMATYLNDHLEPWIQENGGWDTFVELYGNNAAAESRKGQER

The compound “4-(4-((R)-(4′-chlorobiphenyl-2-yl)(cyano)methyl)piperidin-1-yl)-N-(4-((R)-4-morpholino-1-(phenylthio)butan-2-ylamino)-3-(trifluoromethylsulfonyl)phenylsulfonyl)benzamide and 4-(4-((S)-(4′-chlorobiphenyl-2-yl)(cyano)methyl)piperidin-1-yl)-N-(4-((R)-4-morpholino-1-(phenylthio)butan-2-ylamino)-3-(trifluoromethylsulfonyl)phenylsulfonyl)benzamide, mixture of diastereomers [Example 17]” displayed an IC50 on Bcl-XL of 1 nM.

`O=C(NS(=O)(=O)c1ccc(N[C@H](CCN2CCN(CCO)CC2)CSc2ccccc2)c(S(=O)(=O)C(F)(F)F)c1)c1ccc(N2CCC([C@@H](O)c3ccccc3-c3ccc(Cl)cc3)CC2)cc1` [Example 1, 4-(4-((R)-(4′-chlorobiphenyl-2-yl)(hydroxy)methyl)piperidin-1-yl)-N-(4-((R)-4-(4-(2-hydroxyethyl)piperazin-1-yl)-1-(phenylthio)butan-2-ylamino)-3-(trifluoromethylsulfonyl)phenylsulfonyl)benzamide, formic acid salt]: the IC50 at Bcl-XL is 1 nM; at Bcl-2, below 1 nM. Regarding `CN(C)CC[C@H](CSc1ccccc1)Nc1ccc(S(=O)(=O)NC(=O)c2ccc(N3CCC([C@@H](O)c4ccccc4-c4ccc(Cl)cc4)CC3)cc2)cc1[N+](=O)[O-]` [Example 2, 4-(4-((R)-(4′-chlorobiphenyl-2-yl)(hydroxy)methyl)piperidin-1-yl)-N-(4-((R)-4-(dimethylamino)-1-(phenylthio)butan-2-ylamino)-3-nitrophenylsulfonyl)benzamide], the IC50 amounted to 1 nM on Bcl-XL and 0.3 nM on Bcl-2. On the same counts, the results for `CN(CCO)CC[C@H](CSc1ccccc1)Nc1ccc(S(=O)(=O)NC(=O)c2ccc(N3CCC([C@@H](O)c4ccccc4-c4ccc(Cl)cc4)CC3)cc2)cc1S(=O)(=O)C(F)(F)F` [Example 3, 4-(4-((R)-(4′-chlorobiphenyl-2-yl)(hydroxy)methyl)piperidin-1-yl)-N-(4-((R)-4-((2-hydroxyethyl)(methyl)amino)-1-(phenylthio)butan-2-ylamino)-3-(trifluoromethylsulfonyl)phenylsulfonyl)benzamide] are 1 nM and below 0.3 nM. As to `CCN(CCO)CC[C@H](CSc1ccccc1)Nc1ccc(S(=O)(=O)NC(=O)c2ccc(N3CCC([C@@H](O)c4ccccc4-c4ccc(Cl)cc4)CC3)cc2)cc1S(=O)(=O)C(F)(F)F` [Example 4, 4-(4-((R)-(4′-chlorobiphenyl-2-yl)(hydroxy)methyl)piperidin-1-yl)-N-(4-((R)-4-(ethyl(2-hydroxyethyl)amino)-1-(phenylthio)butan-2-ylamino)-3-(trifluoromethylsulfonyl)phenylsulfonyl)benzamide], the IC50 on Bcl-XL came to 0.8 nM; at Bcl-2, 0.5 nM.

Consider `O=C(NS(=O)(=O)c1ccc(N[C@H](CCN(CCO)CCO)CSc2ccccc2)c(S(=O)(=O)C(F)(F)F)c1)c1ccc(N2CCC([C@@H](O)c3ccccc3-c3ccc(Cl)cc3)CC2)cc1` [Example 5, N-(4-((R)-4-(bis(2-hydroxyethyl)amino)-1-(phenylthio)butan-2-ylamino)-3-(trifluoromethylsulfonyl)phenylsulfonyl)-4-(4-((R)-(4′-chlorobiphenyl-2-yl)(hydroxy)methyl)piperidin-1-yl)benzamide, formic acid salt], for which the IC50 at Bcl-XL turned out to be 1 nM; at Bcl-2, 0.8 nM.

For the compound `O=C(NS(=O)(=O)c1ccc(N[C@H](CCN(CCOP(=O)(O)O)CCOP(=O)(O)O)CSc2ccccc2)c(S(=O)(=O)C(F)(F)F)c1)c1ccc(N2CCC([C@@H](O)c3ccccc3-c3ccc(Cl)cc3)CC2)cc1` [Example 7, 2,2′-((R)-3-(4-(N-(4-(4-((R)-(4′-chlorobiphenyl-2-yl)(hydroxy)methyl)piperidin-1-yl)benzoyl)sulfamoyl)-2-(trifluoromethylsulfonyl)phenylamino)-4-(phenylthio)butylazanediyl)bis(ethane-2,1-diyl)bis(dihydrogen phosphate), hydrochloride salt], the IC50 was determined as 1 nM on Bcl-XL and 2 nM on Bcl-2.

Take `CCN(CCOP(=O)(O)O)CC[C@H](CSc1ccccc1)Nc1ccc(S(=O)(=O)NC(=O)c2ccc(N3CCC([C@@H](O)c4ccccc4-c4ccc(Cl)cc4)CC3)cc2)cc1S(=O)(=O)C(F)(F)F` [Example 8, 2-(((R)-3-(4-(N-(4-(4-((R)-(4′-chlorobiphenyl-2-yl)(hydroxy)methyl)piperidin-1-yl)benzoyl)sulfamoyl)-2-(trifluoromethylsulfonyl)phenylamino)-4-(phenylthio)butyl)(ethyl)amino)ethyl dihydrogen phosphate, hydrochloride salt]: the results for the IC50 on Bcl-XL and at Bcl-2 were 1 nM and 0.9 nM, respectively. For `CN(CCOP(=O)(O)O)CC[C@H](CSc1ccccc1)Nc1ccc(S(=O)(=O)NC(=O)c2ccc(N3CCC([C@@H](O)c4ccccc4-c4ccc(Cl)cc4)CC3)cc2)cc1S(=O)(=O)C(F)(F)F` [Example 9, 2-(((R)-3-(4-(N-(4-(4-((R)-(4′-chlorobiphenyl-2-yl)(hydroxy)methyl)piperidin-1-yl)benzoyl)sulfamoyl)-2-(trifluoromethylsulfonyl)phenylamino)-4-(phenylthio)butyl)(methyl)amino)ethyl dihydrogen phosphate, hydrochloride salt], in that order: 1 nM and 0.9 nM. On the same counts, the results for `O=C(NS(=O)(=O)c1ccc(N[C@H](CCN2CCN(CCOP(=O)(O)O)CC2)CSc2ccccc2)c(S(=O)(=O)C(F)(F)F)c1)c1ccc(N2CCC([C@@H](O)c3ccccc3-c3ccc(Cl)cc3)CC2)cc1` [Example 10, 2-(4-((R)-3-(4-(N-(4-(4-((R)-(4′-chlorobiphenyl-2-yl)(hydroxy)methyl)piperidin-1-yl)benzoyl)sulfamoyl)-2-(trifluoromethylsulfonyl)phenylamino)-4-(phenylthio)butyl)piperazin-1-yl)ethyl dihydrogen phosphate] are 1 nM and 0.7 nM. For `CN(CCO)CC[C@H](CSc1ccccc1)Nc1ccc(S(=O)(=O)NC(=O)c2ccc(N3CCC([C@@H](N)c4ccccc4-c4ccc(Cl)cc4)CC3)cc2)cc1S(=O)(=O)C(F)(F)F` [Example 11, 4-(4-((R)-amino(4′-chlorobiphenyl-2-yl)methyl)piperidin-1-yl)-N-(4-((R)-4-((2-hydroxyethyl)(methyl)amino)-1-(phenylthio)butan-2-ylamino)-3-(trifluoromethylsulfonyl)phenylsulfonyl)benzamide, formic acid salt], in that order: 3 nM and 4 nM. As for `CCN(CCO)CC[C@H](CSc1ccccc1)Nc1ccc(S(=O)(=O)NC(=O)c2ccc(N3CCC([C@@H](N)c4ccccc4-c4ccc(Cl)cc4)CC3)cc2)cc1S(=O)(=O)C(F)(F)F` [Example 12, 4-(4-((R)-amino(4′-chlorobiphenyl-2-yl)methyl)piperidin-1-yl)-N-(4-((R)-4-(ethyl(2-hydroxyethyl)amino)-1-(phenylthio)butan-2-ylamino)-3-(trifluoromethylsulfonyl)phenylsulfonyl)benzamide, formic acid salt], the IC50 on Bcl-XL and at Bcl-2 was 3 nM in each case.

With `O=C(NS(=O)(=O)c1ccc(N[C@H](CCN2CCOC[C@H]2CO)CSc2ccccc2)c(S(=O)(=O)C(F)(F)F)c1)c1ccc(N2CCC([C@@H](O)c3ccccc3-c3ccc(Cl)cc3)CC2)cc1` [Example 24, 4-(4-((R)-(4′-chlorobiphenyl-2-yl)(hydroxy)methyl)piperidin-1-yl)-N-(4-((R)-4-((R)-3-(hydroxymethyl)morpholino)-1-(phenylthio)butan-2-ylamino)-3-(trifluoromethylsulfonyl)phenylsulfonyl)benzamide, formic acid salt], the IC50 at Bcl-2 was 0.4 nM.

In turn, `O=C(NS(=O)(=O)c1ccc(N[C@H](CCN2CCOC[C@@H]2CO)CSc2ccccc2)c(S(=O)(=O)C(F)(F)F)c1)c1ccc(N2CCC([C@@H](O)c3ccccc3-c3ccc(Cl)cc3)CC2)cc1` [Example 25, 4-(4-((R)-(4′-chlorobiphenyl-2-yl)(hydroxy)methyl)piperidin-1-yl)-N-(4-((R)-4-((S)-3-(hydroxymethyl)morpholino)-1-(phenylthio)butan-2-ylamino)-3-(trifluoromethylsulfonyl)phenylsulfonyl)benzamide, hydrochloride salt] displayed an IC50 on Bcl-2 of 0.4 nM.
